Assay results as given in US11284835B2, “Method for assessing pain caused by administration of drug solution, and method for selecting drug solution administration” (TERUMO KABUSHIKI KAISHA, priority 2016, dated 2022).

Experiments:
[1] = tested on: rat; assay: Electromyogram (EMG) of the myoelectric response caused by drug solution administration into the plantar subcutaneous of anesthetized rats; assay type: in vivo
From the text: In the embodiment illustrated in FIG. 1, a subject (experimental animal) used for assessment of pain caused by administration of a drug solution is a rat 12. Conditions of the rat 12 that can be used are, for example, an age in range of 7 to 10 weeks old, a body weight in a range of 200 to 400 g, and a strain that is SD (other strains are also possible). An acclimation and quarantine period of the rat 12 is preferably five days or longer. An anesthesia mask 13 is attached to the rat 12, and inhalation anesthesia is performed.
In order to measure the pain caused by the administration of the drug solution, a myoelectric potential of the semitendinosus muscle 12b of the thigh of the rat 12 is recorded. At the time of recording the myoelectric potential, a needle-shaped measurement electrode 24 (for example, a bipolar hook electrode) is punctured under the semitendinosus muscle 12b to be placed, and a reference electrode 26 is pasted to a thoracic skin surface 12c. Potential signals from the measurement electrode 24 and the reference electrode 26 are amplified by a high-sensitivity bioelectric amplifier 28 and transmitted to a data collection device 30.
A rat 12 serving as a subject is prepared (a preparation step), and the rat 12 is subjected to inhalation anesthesia (an anesthesia step). Examples of an applicable inhalation anesthetic include isoflurane. […] Incidentally, it is preferable to heat the rat 12 with a warming mat to keep the body temperature constant during the anesthesia.
Next, the measurement electrode 24 is placed in the semitendinosus muscle 12b of the anesthetized rat 12 (a measurement electrode placement step). […] At this time, the thigh skin at a position where contraction has been recognized is incised by about 1 cm to expose the semitendinosus muscle 12b, and then, the measurement electrode 24 is inserted.
Thereafter, the anesthetic depth is kept constant. […]
Once such a myoelectric potential waveform is obtained, the measurement step is performed in order to assess (quantify) the pain caused by the drug solution administration. […]

[2] = tested on: human; conditions: cited from earlier work

SMILES | magnitude of pain (EMG intensity) ([1]; 10% NaCl, plurality of different administration rates (FIG. 9B)) | pain (EMG intensity obtained from myoelectric response) ([1]; NaCl concentration 5% or more (FIG. 6B)) | magnitude of pain (VAS) over time ([2]; 5% NaCl injected (FIG. 6A)) | pain (EMG intensity obtained from myoelectric response) ([1]; plurality of different molar concentrations (FIG. 7B)) | magnitude of pain (VAS) ([2]; plurality of different molar concentrations (FIG. 7A, created from source graph))
[Cl-].[Na+] [NaCl] | varies depending on a difference in the administration rate | significantly increases | great pain | – | –
N[C@@H](CCC(=O)O)C(=O)O [glutamic acid] | – | – | – | the pain increases as the molar concentration of glutamic acid increases | the pain increases as the molar concentration of glutamic acid increases
